Data: patent US12281098B2, “Five-membered-fused six-membered compound, preparation method, pharmaceutical composition and use” (HANGZHOU POLYMED BIOPHARMACEUTICALS, INC., priority 2021, dated 2025)
Read-outs that look alike come from different tables or passages of the source.

What was measured:
IRAK4 kinase = molecular target: T1, IRAK4 kinase (Homo sapiens, UniProt Q9NWZ3); test: Compound inhibition of IRAK4 kinase activity (fluorescence microfluidic mobility shift assay); format: biochemical; details: 10 μM ATP, 6 nM IRAK4 kinase
T1 construct: purchased Carna 09-145
T1 sequence (Q9NWZ3 1-460): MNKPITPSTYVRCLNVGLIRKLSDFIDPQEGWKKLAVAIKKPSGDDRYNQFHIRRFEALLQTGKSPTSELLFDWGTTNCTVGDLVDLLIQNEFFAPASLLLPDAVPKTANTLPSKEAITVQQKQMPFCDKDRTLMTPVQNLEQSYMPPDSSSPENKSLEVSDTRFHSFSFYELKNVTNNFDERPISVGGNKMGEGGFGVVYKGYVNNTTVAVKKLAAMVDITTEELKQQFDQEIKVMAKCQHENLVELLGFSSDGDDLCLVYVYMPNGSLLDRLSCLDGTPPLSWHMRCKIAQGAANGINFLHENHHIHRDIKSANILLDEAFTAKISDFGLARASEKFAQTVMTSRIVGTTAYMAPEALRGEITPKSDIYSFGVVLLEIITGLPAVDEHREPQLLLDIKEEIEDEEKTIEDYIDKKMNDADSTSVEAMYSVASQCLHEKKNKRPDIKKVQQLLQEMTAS
Method: Based on the experimental method of fluorescence microfluidic mobility shift assay, the IC50 value of the compound for competitive binding of ATP to IRAK4 kinase was determined. The initial detection concentration of the compound was 10 μM, which was 4-fold serially diluted to 0.38 nM and assayed in duplicate. In this case, commercially available staurosporine was the standard control for the assay.
1) IRAK4 kinase was dissolved in kinase buffer (50 mM HEPES pH 7.5, 10 mM MgCl2, 2 mM DDT, and 0.01% Brij-35) at a final concentration of 6 nM.
2) The substrate peptide FAM-P8 and ATP were dissolved in the above kinase buffer, and the final concentrations of the substrate peptide FAM-P8 and ATP for IRAK4 were 3 μM and 10 μM, respectively.
3) Compound dilution: The compound was first diluted to 50 μM, and then 4-fold serially diluted with DMSO. In this case, the solution without compound and kinase served as the blank control, corresponding to the “minimum value” shown below; the solution without compound but containing kinase, adenosine 5′-triphosphate disodium salt hydrate, DMSO, and the buffer served as the positive control, corresponding to the “maximum value” shown below.
4) Kinase reaction and termination: 10 μL of the kinase buffer was added to a 384-well plate containing 5 μL of the compound to be tested, and the mixture was incubated at room temperature for 10 minutes; another 10 μL of buffer containing the substrate peptide and adenosine 5′-triphosphate disodium salt hydrate was added to the 384-well plate, and after incubation at 28° C. for 1 hour, 25 μL of termination solution (100 mM HEPES pH 7.5, 50 mM EDTA, 0.2% Coating Reagent #3, and 0.015% Brij-35) was added to each well to terminate the reaction.
5) Data reading: CaliperEZ Reader II instrument was used to read the conversion rate data. Setting conditions: downstream voltage as −500 V, upstream voltage as −2250 V, base pressure as −0.5 PSI, and screening pressure as −1.2 PSI.
6) Data calculation: the conversion rate data was copied from CaliperEZ Reader II, and the conversion rate was converted into inhibition rate data. The calculation formula is as follows: Inhibition percentage (%)=(maximum value−conversion rate)/(maximum value−minimum value)*100%
IC50 values were fitted with XLFit excel add-in version 5.4.0.8.

THP-1 cells = test: LPS-stimulated cytokine (TNFα) release in THP-1; format: cell-based, Human; details: LPS 100 ng/mL, 5 hours, TNF-α ELISA, read-out: Inhibition IC50 (nM) of cytokines (TNFα) against LPS-stimulated inflammatory responses in THP-1 cells
Method: THP-1 cells were cultured in suspension in RPMI 1640 complete medium (containing 10% serum, 1% penicillin-streptomycin, and 55 μM β-mercaptoethanol). THP-1 cells were collected, centrifuged at 350×g at room temperature to discard the supernatant, and resuspended in RPMI 1640 complete medium to a concentration of 2×10^6 cells per mL. THP-1 cells were spread into a 96-well plate at a concentration of 2×10^5 cells per well, and different concentrations of the compound to be tested were added thereto. The plate was incubated in a 37° C. cell culture incubator with 5% CO2 for 60 minutes. 50 μL of LPS at a final concentration of 100 ng/mL was added to a 96-well plate, and incubated in a 37° C. cell culture incubator for 5 hours. The cell culture plate was then taken out from the incubator, and centrifuged at 350×g at low temperature for 5 minutes to collect 150 μL of the supernatant. Referring to the instructions in the Human TNF-α Duoset ELISA Kit, the level of TNF-α in the cell culture supernatant was detected.
Data on the inhibitory activity of cytokines (TNFα) against LPS-stimulated inflammatory responses in THP-1 cells are shown in Tables 3 and 4.

[1] = molecular target: T2, IRAK4 protein in THP-1 cells (Homo sapiens, UniProt Q9NWZ3); test: IRAK4 protein degradation in THP-1 induced by PROTAC (Western Blot); format: cell-based; details: Table 6, estimated bins, GAPDH internal reference
T2 construct: endogenous in cells; host or cells: THP-1
T2 sequence (Q9NWZ3 1-460): T1 sequence (Q9NWZ3 1-460)
Method: 3.1. Based on the experimental method of immunoblot, i.e., Western Blot, THP-1 cell samples processed by gel electrophoresis were stained with specific antibodies, and the degradation activity of the compounds on the IRAK4 protein in THP-1 cells was determined by analyzing the position of the staining and the depth of the staining. The detection concentrations of the compounds were 0 μM, 0.3 μM, 1 μM, and 3 μM, and the compounds were used to treat the cells for 8 hours, 16 hours, 24 hours, and 48 hours. In this case, glyceraldehyde-3-phosphate dehydrogenase (GAPDH) was the internal reference protein for the assay.
THP-1 cells were spread into a 6-well plate at a density of 1.5×10^6 cells per mL, and incubated in a 37° C. cell culture incubator with 5% CO2 for 2 hours. The compound was diluted with DMSO to 0.6 mM, 0.2 mM, and 0.06 mM, respectively. 10 μL of compound solution was added to the corresponding wells, and the plate was incubated in the incubator for 16 hours, 24 hours, and 48 hours, respectively. The drug-treated THP-1 cells were collected from the wells, added with 120 μL of RIPA lysis buffer containing protease inhibitor, phosphatase inhibitor cocktail 2, and phosphatase inhibitor cocktail 3, and lysed on wet ice for 30 minutes. The cell lysate was then centrifuged at low temperature and high speed for 5 minutes, and the supernatant was collected. Referring to the instructions in the Pierce™ BCA Protein Assay Kit, the cell samples were tested for protein concentration.
The samples were adjusted to the same concentration using lysis buffer and NuPAGE® LDS sample buffer containing 1 M DTT. The samples were heated at 95° C. for 5 minutes and centrifuged at low temperature and high speed. 20 μL of prepared protein sample and 4 μL of PageRuler Prestained Protein Ladder were added to the gel wells. The mixture was electrophoresed at a voltage of 80 V for 0.5 hours, and then electrophoresed for another 1.5 hours after the voltage was adjusted to 120 V. The gel was removed and proteins in the gel were transferred to IBlot™ 2 Transfer Stack at a voltage of 20V. After successful membrane transfer, the bands were cut out at 65 kDa to 40 kDa and 40 kDa to 30 kDa, respectively. The membrane was blocked with 5% non-fat milk at room temperature for 1 hour. The membrane was washed three times with 1×TBST, and incubated with IRAK4 antibody working solution at 4° C. overnight. The IRAK4 antibody working solution was discarded, and the membrane was washed three times with 1×TBST. After the corresponding membrane was incubated with Goat Anti-Rabbit IgG H&L (HRP) working solution and Goat Anti-Mouse IgG H&L (HRP) working solution at room temperature for 1 hour, the antibody working solutions were discarded, and the membrane was washed three times with 1×TBST. Referring to the instructions in the SuperSignal™ West Femto Maximum Sensitivity Substrate Kit, the reagents in the kit were mixed in equal volume proportions to prepare a luminescent mixture, and the membrane was incubated for 1 minute and removed for exposure.
WB assay: The results 24 hours after administration at 1 μM were divided into estimated <25%, <50%, <75%, and <100%.

Row | IC50 (IRAK4 kinase; Table 1) [nM] | IC50 (IRAK4 kinase; Table 2) [nM] | IC50 (THP-1 cells; Homo sapiens, THP-1, Table 3) [nM] | IC50 (THP-1 cells; Table 4) [nM] | IC50 (THP-1 cells; Homo sapiens, THP-1, Table 4) [nM] | Western Blot results 24 hours after administration at a drug concentration of 1 μM [1] [%] | Compound
1 | 100 to 1000 | 100 to 1000 | ≥ 10000 | ≥ 10000 | – | – | CC(C)(O)c1cc2nn(CCN3CCN(CC(=O)NCCOCCOCCNc4cccc5c4C(=O)N(C4CCC(=O)NC4=O)C5=O)C3=O)cc2cc1NC(=O)c1cccc(C(F)(F)F)n1 (stereo not drawn) [III-2]
2 | 100 to 1000 | 100 to 1000 | 1000 to 10000 | 1000 to 10000 | – | – | CC(C)(O)c1cc2nn(CCN3CCN(CC(=O)NCCCCNc4cccc5c4C(=O)N(C4CCC(=O)NC4=O)C5=O)C3=O)cc2cc1NC(=O)c1cccc(C(F)(F)F)n1 (stereo not drawn) [III-10]
3 | 100 to 1000 | 100 to 1000 | – | – | 1000 to 10000 | – | CC(C)(O)c1cc2nn(CCN3CCN(CC(=O)N4CCC5(CC4)CCN(c4cccc6c4C(=O)N(C4CCC(=O)NC4=O)C6=O)CC5)C3=O)cc2cc1NC(=O)c1cccc(C(F)(F)F)n1 (stereo not drawn) [III-11]
4 | 100 to 1000 | 100 to 1000 | 100 to 1000 | 100 to 1000 | – | – | COc1cc2c(cc1NC(=O)c1cccc(C(F)(F)F)n1)CN(CC(=O)N1CCC3(CC1)CCN(c1cccc4c1C(=O)N(C1CCC(=O)NC1=O)C4=O)CC3)C2=O (stereo not drawn) [III-24]
5 | 100 to 1000 | 100 to 1000 | 1000 to 10000 | 1000 to 10000 | – | – | COc1cc2c(cc1NC(=O)c1cccc(C(F)(F)F)n1)CN(CCC(C)(C)C(=O)N1CCC3(CC1)CCN(c1cccc4c1C(=O)N(C1CCC(=O)NC1=O)C4=O)CC3)C2=O (stereo not drawn) [III-25]
6 | < 100 | < 100 | 1000 to 10000 | 1000 to 10000 | – | – | COc1cc2c(cc1NC(=O)c1cccc(C(F)(F)F)n1)CN(CCC(C)(C)C(=O)N1CCC3(CCC(C(=O)N[C@H](C(=O)N4C[C@H](O)C[C@H]4C(=O)N[C@@H](C)c4ccc(-c5scnc5C)cc4)C(C)(C)C)CC3)CC1)C2=O [III-26]
7 | < 100 | < 100 | – | – | 1000 to 10000 | – | COc1cc2nn(CCN3CCN(CC(=O)N4CCC5(CCC(C(=O)N[C@H](C(=O)N6C[C@H](O)C[C@H]6C(=O)N[C@@H](C)c6ccc(-c7scnc7C)cc6)C(C)(C)C)CC5)CC4)CC3)cc2cc1NC(=O)c1cccc(C(F)(F)F)n1 [III-29]
8 | – | < 100 | – | – | 1000 to 10000 | – | COc1cc2nn(CCN3CCN(CC(=O)N4CCC5(CC4)CCN(c4ncc(Nc6cccc7c6C(=O)N(C6CCC(=O)NC6=O)C7=O)cn4)CC5)CC3)cc2cc1NC(=O)c1cccc(C(F)(F)F)n1 (stereo not drawn) [III-30]
9 | < 100 | < 100 | – | – | 1000 to 10000 | – | COc1cc2nn(CCN3CCN(CC(=O)N4CC5(CC(CC(=O)N[C@H](C(=O)N6C[C@H](O)C[C@H]6C(=O)N[C@@H](C)c6ccc(-c7scnc7C)cc6)C(C)(C)C)C5)C4)CC3)cc2cc1NC(=O)c1cccc(C(F)(F)F)n1 [III-31]
10 | – | < 100 | – | – | 100 to 1000 | – | COc1cc2nn(CCN3CCN(CC(=O)N4CCC5(CCC(N[C@H](C(=O)N6C[C@H](O)C[C@H]6C(=O)N[C@@H](C)c6ccc(-c7scnc7C)cc6)C(C)(C)C)CC5)CC4)C3=O)cc2cc1NC(=O)c1cccc(C(F)(F)F)n1 [III-35]
11 | – | < 100 | – | – | – | <25 | COc1cc2nn(CCN3CCN(c4cccc5c4C(=O)N(C4CCC(=O)NC4=O)C5=O)CC3)cc2cc1NC(=O)c1cccc(C(F)(F)F)n1 (stereo not drawn) [III-39]
12 | – | < 100 | – | – | – | <25 | COc1cc2c(cc1NC(=O)c1cccc(C(F)(F)F)n1)CN(CCC(C)(C)C(=O)NC1CCN(c3cccc4c3C(=O)N(C3CCC(=O)NC3=O)C4=O)CC1)C2=O (stereo not drawn) [III-41]
13 | – | < 100 | – | – | – | <25 | COc1cc2nn(CCN3CCN(CC(=O)N4CCC5(CCC(Oc6cccc7c6C(=O)N(C6CCC(=O)NC6=O)C7=O)CC5)CC4)CC3)cc2cc1NC(=O)c1cccc(C(F)(F)F)n1 (stereo not drawn) [III-56]
14 | – | < 100 | – | – | – | <25 | CC(C)(O)c1cc2nn(CCN3CCN(CC(=O)N4CC5(C4)CN(c4cccc6c4C(=O)N(C4CCC(=O)NC4=O)C6=O)C5)CC3)cc2cc1NC(=O)c1cccc(C(F)(F)F)n1 (stereo not drawn) [III-63]
15 | – | 100 to 1000 | – | – | – | <25 | COc1cc2nn(CCN3CCN(c4ccc(OCC#Cc5cccc6c5C(=O)N(C5CCC(=O)NC5=O)C6=O)cc4)CC3)cc2cc1NC(=O)c1cccc(C(F)(F)F)n1 (stereo not drawn) [III-69]

Row | Compound | IC50 (IRAK4 kinase; Table 1) [nM] | IC50 (IRAK4 kinase; Table 2) [nM] | IC50 (THP-1 cells; Homo sapiens, THP-1, Table 3) [nM] | IC50 (THP-1 cells; Table 4) [nM] | IC50 (THP-1 cells; Homo sapiens, THP-1, Table 4) [nM] | Western Blot results 24 hours after administration at a drug concentration of 1 μM [1] [%]
16 | COc1cc2nn(CCN3CC4CCC(C3)N4CC(=O)N3CCC4(CC3)CCN(c3cccc5c3C(=O)N(C3CCC(=O)NC3=O)C5=O)CC4)cc2cc1NC(=O)c1cccc(C(F)(F)F)n1 (stereo not drawn) [III-54] | – | < 100 | – | – | – | <25
